Results published in ChEMBL document CHEMBL1144557, “The novel C-5 aryl, alkenyl, and alkynyl substituted uracil derivatives of L-ascorbic acid: synthesis, cytostatic, and antiviral activity evaluations” (Bioorg Med Chem, 2007).
≈ marks a conversion by molar mass, not a printed value.

Each molecule was assayed on Vaccinia virus (assay: Antiviral activity against Vaccinia virus-induced cytopathogenicity in E6SM cells). Conditions: Orthopoxvirus vaccinia.
Format: functional

Question: `O=C1O/C(=C\Cn2cc(-c3ccccc3)c(=O)[nH]c2=O)C(OCc2ccccc2)=C1OCc1ccccc1` was tested. Which MIC did it give?
Answer: 95 µM (≈ 48.3 µg/mL)

Question: For `O=C1O/C(=C(\Br)Cn2c(Br)c(/C=C/Br)c(=O)[nH]c2=O)C(OCc2ccccc2)=C1OCc1ccccc1`, which MIC is on record?
Answer: > 116 µM

Question: Which MIC does the source give for `CC#Cc1cn(C/C=C2\OC(=O)C(OCc3ccccc3)=C2OCc2ccccc2)c(=O)[nH]c1=O` here?
Answer: > 0.4 µM

Question: `O=C1O/C(=C\Cn2cc(-c3cccs3)c(=O)[nH]c2=O)C(OCc2ccccc2)=C1OCc1ccccc1` was tested. Which MIC did it give?
Answer: > 156 µM

Question: With `O=C1O/C(=C\Cn2cc(-c3ccc(Cl)o3)c(=O)[nH]c2=O)C(OCc2ccccc2)=C1OCc1ccccc1` as the molecule, how does the MIC read?
Answer: > 150 µM

Question: With `C=Cc1cn(C/C=C2\OC(=O)C(O)=C2O)c(=O)[nH]c1=O` as the molecule, how does the MIC read?
Answer: > 144 µM

Question: How did the MIC turn out when `O=C1O/C(=C\Cn2cc(C#Cc3ccccc3)c(=O)[nH]c2=O)C(OCc2ccccc2)=C1OCc1ccccc1` was run?
Answer: > 40 µM

Question: With `O=C1O/C(=C\Cn2cc(/C=C/Br)c(=O)[nH]c2=O)C(OCc2ccccc2)=C1OCc1ccccc1` as the molecule, how does the MIC read?
Answer: > 150 µM

Question: For `C=CCc1cn(C/C=C2\OC(=O)C(OCc3ccccc3)=C2OCc2ccccc2)c(=O)[nH]c1=O`, which MIC is on record?
Answer: > 8 µM

Question: `O=C1O/C(=C\Cn2cc(-c3ccco3)c(=O)[nH]c2=O)C(OCc2ccccc2)=C1OCc1ccccc1` was tested. Which MIC did it give?
Answer: > 6.4 µM

Question: `O=C1O/C(=C\Cn2cc(-c3ccc(Br)o3)c(=O)[nH]c2=O)C(OCc2ccccc2)=C1OCc1ccccc1` was tested. Which MIC did it give?
Answer: > 70 µM

Question: How did the MIC turn out when `C=C=Cc1cn(C/C=C2\OC(=O)C(OCc3ccccc3)=C2OCc2ccccc2)c(=O)[nH]c1=O` was run?
Answer: > 8 µM

Question: Which MIC does the source give for `Nc1nc2c(ncn2COCCO)c(=O)[nH]1` [ACYCLOVIR] here?
Answer: 300 µM (≈ 67.6 µg/mL)

Question: `O=c1[nH]c(=O)n([C@H]2C[C@H](O)[C@@H](CO)O2)cc1/C=C/Br` [BRIVUDINE] was tested. Which MIC did it give?
Answer: 2.4 µM (≈ 0.8 µg/mL)

Question: How did the MIC turn out when `Nc1nc2c(ncn2COC(CO)CO)c(=O)[nH]1` [GANCICLOVIR] was run?
Answer: 60 µM (≈ 15.3 µg/mL)

Question: With `NC(=O)c1ncn([C@@H]2O[C@H](CO)[C@@H](O)[C@H]2O)n1` [RIBAVIRIN] as the molecule, how does the MIC read?
Answer: 100 µM (≈ 24.4 µg/mL)

The molecules below were run on Vaccinia virus (assay: Antiviral activity against Vaccinia virus-induced cytopathogenicity in HEL cells). Conditions: Orthopoxvirus vaccinia.
Format: functional

Question: `C=Cc1cn(C/C=C2\OC(=O)C(OCc3ccccc3)=C2OCc2ccccc2)c(=O)[nH]c1=O` was tested. Which MIC did it give?
Answer: > 18 µM

Question: With `O=C1O/C(=C\Cn2cc(C#Cc3ccccc3)c(=O)[nH]c2=O)C(O)=C1O` as the molecule, how does the MIC read?
Answer: 4 µM (≈ 1.41 µg/mL)

Question: Which MIC does the source give for `C#Cc1cn(C/C=C2\OC(=O)C(O)=C2O)c(=O)[nH]c1=O` here?
Answer: 4 µM (≈ 1.1 µg/mL)

Question: With `O=C1O/C(=C\Cn2cc(-c3ccco3)c(=O)[nH]c2=O)C(O)=C1O` as the molecule, how does the MIC read?
Answer: > 100 µM

Question: `C#Cc1cn(C/C=C2\OC(=O)C(OCc3ccccc3)=C2OCc2ccccc2)c(=O)[nH]c1=O` was tested. Which MIC did it give?
Answer: > 18 µM

Question: `O=C1O/C(=C\Cn2cc(-c3ccccc3)c(=O)[nH]c2=O)C(O)=C1O` was tested. Which MIC did it give?
Answer: > 100 µM

Question: For `CC(C)=CCc1cn(C/C=C2\OC(=O)C(OCc3ccccc3)=C2OCc2ccccc2)c(=O)[nH]c1=O`, which MIC is on record?
Answer: 4 µM (≈ 2 µg/mL)

Question: `O=C1O/C(=C\Cn2cc(-c3cccs3)c(=O)[nH]c2=O)C(O)=C1O` was tested. Which MIC did it give?
Answer: > 100 µM
